Where a name gives a salt, the structure may show the parent alone. Read-outs that look alike come from different tables or passages of the source.

The text below walks through data of patent US6846843B2, “β-thioamino acids” (Gruenenthal GmbH, priority 2000, dated 2005).

The target of test [1] is gabapentin binding site. Description: Gabapentin binding assay (displacement of gabapentin from its binding site). Conditions: for IC50: displacement of gabapentin, read-out: Affinity (IC50); for % Inhibition (Concn.): inhibition of gabapentin binding. The protocol: Gabapentin is used in the binding assay in order to determine the binding and affinities of the selected compounds. The affinity of the compounds according to the invention is measured via the displacement of gabapentin from its binding site.

For test [2], the system named is formalin-induced nociception. Briefly: Formalin test on mice (second phase). Conditions: mouse, second phase, read-out: Mouse Formalin Test ED50. It counts as in vivo. The protocol:
The investigations to determine the antinociceptive action of the compounds according to the invention were carried out by the formalin test on male albino mice (NMRI, 25-35 g, Iffa Credo, Belgium).
In the formalin test the first (early) phase (0-15 minutes after the formalin injection) and the second (late) phase (15-60 minutes after the formalin injection) differ (D. Dubuisson et al., Pain, Vol. 4, pp. 161-174 (1977)). The early phase, being a direct reaction to the formalin injection, constitutes a model for acute pain, whereas the late phase is regarded as a model for persistent (chronic or inflammatory) pain (T. J. Coderre et al., Pain, Vol. 52, pp. 259-285 (1993)).
The compounds according to the invention were investigated in the second phase of the formalin test in order to obtain information on the effects of substances in chronic/inflammatory pain.
By means of a single subcutaneous formalin injection (20 μl, 1% aqueous solution) into the dorsal side of the right-hand rear paw, a nociceptive reaction was induced in unconstrained experimental animals, manifested in a noticeable licking and biting of the affected paw. The nociceptive behavior during the investigation period in the second (late) phase of the formalin test was continuously monitored by observing the animals. The pain reaction was quantified by totalling the time in seconds during which the animals continued to lick and bite the affected paw during the investigation period. After injecting substances that have an antinociceptive effect in the formalin test, the aforedescribed behavior pattern of the animals is reduced or possibly even eliminated. Corresponding to the substance tests, in which the animals had been injected with the test substance before formalin, the control animals were injected with a vehicle, i.e. solvent (e.g. 0.9% NaCl solution) before the formalin injection. The behavior of the animals after administration of the substance (n=10 per substance dose) was compared with a control group (n=10).
Based on the quantification of the pain reaction, the effect of the substance in the formalin test was determined as the change in the control in percentage terms. The ED50 calculations were carried out by means of regression analysis. The application time before the formalin injection (intraperitoneally: 15 minutes, intravenously: 5 minutes) was chosen depending on the type of application of the compounds according to the invention.

By IC50 is commonly meant the concentration needed to halve the response being measured. As to `CCC(C)(S)C(N)C(=O)O` (racemic) [Compound 1, rac-2-amino-3-mercapto-3-methylpentanoic acid hydrochloride], the 50% inhibitory concentration (IC50) in test [1] is 268 nM.

As usually defined, the ED50 is the midpoint of the dose-response relation. Turning to `CCCC(C)(S)C(N)C(=O)O.Cl` (racemic) [Compound 2, rac-2-amino-3-mercapto-3-methylhexanoic acid hydrochloride], the IC50 in test [1] was 165 nM. In test [2] (iv, i.v.), the ED50 turned out to be 158 mg/kg.

With `CCCCC(C)(S)C(N)C(=O)O.Cl` (racemic) [Compound 3, rac-2-amino-3-mercapto-3-methylheptanoic acid hydrochloride], in test [1], the half-maximal inhibitory concentration (IC50) came out at 280 nM and the “% Inhibition (Concn.)” value is reported as 99.7%.

As for `CCCCCCC(C)(S)C(N)C(=O)O.Cl` (racemic) [Compound 5, rac-2-amino-3-mercapto-3-methylnonanoic acid hydrochloride], the IC50 in test [1] (hydrochloride) amounted to 70 nM. In test [2] (ip, i.p.), the ED50 was 54 mg/kg.

`CCC(S)(CC)C(N)C(=O)O` (racemic) [Compound 7, rac-2-amino-3-ethyl-3-mercaptopentanoic acid hydrochloride]: the 50% inhibitory concentration (IC50) in test [1] amounted to 258 nM.

With `CCCC(S)(CC)C(N)C(=O)O.Cl` (racemic) [Compound 9, rac-amino-3-ethyl-3-mercaptohexanoic acid hydrochloride], in test [1], the IC50 came out at 339 nM and the “% Inhibition (Concn.)” value amounted to 97.5%.

With `CCCCCCCC(C)(S)C(N)C(=O)O.Cl` (racemic) [Compound 10, rac-threo-2-amino-3-mercapto-3-methyldecanoic acid hydrochloride], the IC50 in test [1] (hydrochloride) came out at 150 nM. The ED50 in test [2] (ip, i.p.) turned out to be 105 mg/kg.

For `CCCCCCCC(C)(S)C(N)C(=O)O` (racemic) [Compound 11, rac-erythro-2-amino-3-mercapto-3-methyldecanoic acid hydrochloride], the half-inhibitory concentration (IC50) in test [1] (hydrochloride) came out at 120 nM.

For `CCCCCCC(C)(S)C(N)C(=O)O` (racemic) [Compound 12, rac-threo-2-amino-3-mercapto-3-methylnonanoic acid hydrochloride], in test [1] (hydrochloride), the half-inhibitory concentration (IC50) was 70 nM. Besides, the ED50 in test [2] (ip, i.p.) was 78 mg/kg.

For `CCCCCCC(C)(S)C(N)C(=O)O` (racemic) [Compound 13, rac-erythro-2-amino-3-mercapto-3-methylnonanoic acid hydrochloride], in test [1] (hydrochloride), the IC50 amounted to 30 nM.

Take `CCCCCC(C)(S)C(N)C(=O)O` (racemic) [Compound 14, rac-threo-2-amino-3-mercapto-3-methyloctanoic acid hydrochloride]: the half-inhibitory concentration (IC50) in test [1] (hydrochloride) was determined as 100 nM.

`CCCCCC(C)(SCC)C(N)C(=O)O.Cl` (racemic) [Compound 15, rac-2-amino-3-ethylsulfanyl-3-methyloctanoic acid hydrochloride]: in test [1], the “% Inhibition (Concn.)” value was 92% (10^−5 μm).

Take `CCCCCC(C)(SCc1ccccc1)C(N)C(=O)O` (racemic) [Compound 16, rac-threo-2-amino-3-benzylsulfanyl-3-methyl-octanoic acid hydrochloride]: in test [1], the half-inhibitory concentration (IC50) was 1800 nM and the “% Inhibition (Concn.)” value is listed as 93%.

For `CCCC(S)(CCC)C(N)C(=O)O` (racemic) [Compound 17, rac-2-amino-3-mercapto-3-propyl-3-hexanoic acid hydrochloride], the IC50 in test [1] amounted to 2350 nM.

With `Cl.NC(C(=O)O)C1(S)CCCCCC1` (racemic) [Compound 18, rac-amino-(1-mercaptocycloheptyl)acetic acid hydrochloride], in test [1], the “% Inhibition (Concn.)” value is 15% (10^−5 μm).

Consider `CCCCCCC(C)(SCC)C(N)C(=O)O` (racemic) [Compound 19, rac-2-amino-3-ethylsulfanyl-3-methylnonanoic acid hydrochloride], for which, in test [1], the IC50 worked out at 271 nM.

Consider `CCCCCCC(C)(SCCC)C(N)C(=O)O` (racemic) [Compound 20, rac-2-amino-3-methyl-3-propylsulfanylnonanoic acid hydrochloride], for which the IC50 in test [1] was 3050 nM.

Turning to `CCCCCCSC(C)(CCCCCC)C(N)C(=O)O` (racemic) [Compound 21, rac-2-amino-3-hexylsulfanyl-3-methylnonanoic acid hydrochloride], the IC50 in test [1] is 12400 nM.

Turning to `CCCCCCC(C)(SCc1ccccc1)C(N)C(=O)O` (racemic) [Compound 22, rac-2-amino-3-benzylsulfanyl-3-methyl-nonanoic acid hydrochloride], the IC50 in test [1] was determined as 336 nM.

`CCCCCCCC(C)(SCc1ccccc1)C(N)C(=O)O.Cl` (racemic) [Compound 23, rac-2-amino-3-benzylsulfanyl-3-methyldecanoic acid hydrochloride]: the “% Inhibition (Concn.)” value in test [1] is on record as 91% (10^−5 μm).

Take `CCCCCCCC(C)(SCC)C(N)C(=O)O.Cl` (racemic) [Compound 24, rac-2-amino-3-ethylsulfanyl-3-methyldecanoic acid hydrochloride]: the “% Inhibition (Concn.)” value in test [1] is recorded as 90% (10^−5 μm).

Consider `Cl.NC(C(=O)O)C(S)(c1ccc(F)cc1)C1CC1` (racemic) [Compound 25, rac-2-amino-3-cyclopropyl-3-(4-fluorophenyl)-3-mercapto-propionic acid hydrochloride], for which the “% Inhibition (Concn.)” value in test [1] is reported as 40% (10^−5 μm).

Take `CC(S)(C1CC1)C(N)C(=O)O` (racemic) [Compound 26, rac-2-amino-3-cyclopropyl-3-mercaptobutanoic acid hydrochloride]: the IC50 in test [1] stood at 703 nM.

Consider `CC(S)(C1CCC1)C(N)C(=O)O` (racemic) [Compound 27, rac-2-amino-3-cyclobutyl-3-mercapto-butanoic acid hydrochloride], for which, in test [1], the IC50 was found to be 589 nM.

For the compound `CC(S)(C1CCCCC1)C(N)C(=O)O` (racemic) [Compound 28, rac-2-amino-3-cyclohexyl-3-mercaptobutanoic acid hydrochloride], in test [1], the IC50 was found to be 1320 nM.

As to `CC(S)(c1cccs1)C(N)C(=O)O.Cl` (racemic) [Compound 29, rac-2-amino-3-mercapto-3-thiophen-2-yl-butanoic acid hydrochloride], in test [1], the “% Inhibition (Concn.)” value was 30% (10^−5 μm).

On to `CCCCC(S)(CC)C(N)C(=O)O` (racemic) [Compound 30, rac-2-amino-3-ethyl-3-mercaptoheptanoic acid hydrochloride], for which the IC50 in test [1] came out at 314 nM.

Consider `NC(C(=O)O)C1(S)CCCCC1` (racemic) [Compound 31, rac-amino-(1-mercaptocyclohexyl)ethanoic acid hydrochloride], for which the IC50 in test [1] came to 187 nM.

`CC1CCCC(S)(C(N)C(=O)O)C1` (racemic) [Compound 32, rac-amino-(1-mercapto-3-methylcyclohexyl)ethanoic acid hydrochloride]: in test [1], the IC50 came to 223 nM.

For the compound `CC1CCCCC1(S)C(N)C(=O)O` (racemic) [Compound 33, rac-amino-(1-mercapto-2-methylcyclohexyl)ethanoic acid hydrochloride], in test [1], the IC50 is 528 nM.

As to `CC1CCC(S)(C(N)C(=O)O)CC1` (racemic) [Compound 34, rac-amino-(1-mercapto-4-methylcyclohexyl)ethanoic acid hydrochloride], in test [1], the IC50 worked out at 1000 nM.

On to `Cl.NC(C(=O)O)C1(S)CCSCC1` (racemic) [Compound 35, rac-amino-(4-mercaptotetrahydrothiopyran-4-yl)ethanoic acid hydrochloride], for which, in test [1], the “% Inhibition (Concn.)” value is listed as 84% (10^−5 μm).

`CC(C)C(C)(S)C(N)C(=O)O.Cl` (racemic) [Compound 36, rac-2-amino-3-mercapto-3,4-dimethylpentanoic acid hydrochloride]: the “% Inhibition (Concn.)” value in test [1] is on record as 88% (10^−5 μm).

For the compound `CCC(C)C(C)(S)C(N)C(=O)O` (racemic) [Compound 37, rac-2-amino-3-mercapto-3,4-dimethylhexanoic acid hydrochloride], the IC50 in test [1] stood at 196 nM.
